In ChEMBL document CHEMBL1150014, “DISCOVERY OF A NOVEL CLASS OF BK CHANNEL OPENERS: ENANTIOSPECIFIC SYNTHESIS AND BK CHANNEL OPENING ACTIVITY OF 3-(5-CHLORO-2-HYDROXYPHENYL)-1,3-DIHYDRO-3-HYDROXY-6-(TRIFLUOROMETHYL)-2H-INDOL-2-ONE” (Bioorg Med Chem Lett, 1997):

Columns and labels:
Assay type in all cases: functional
[1] = biological target: Calcium-activated potassium channel subunit alpha-1 (Mus musculus) (UniProt Q08460); experiment: Effect on outward K+ current using two-electrode voltage clamp recording from Xenopus laevis oocyte expressing cloned mSlo at 30 uM
Calcium-activated potassium channel subunit alpha-1 (Mus musculus), sequence (Q08460 whole entry): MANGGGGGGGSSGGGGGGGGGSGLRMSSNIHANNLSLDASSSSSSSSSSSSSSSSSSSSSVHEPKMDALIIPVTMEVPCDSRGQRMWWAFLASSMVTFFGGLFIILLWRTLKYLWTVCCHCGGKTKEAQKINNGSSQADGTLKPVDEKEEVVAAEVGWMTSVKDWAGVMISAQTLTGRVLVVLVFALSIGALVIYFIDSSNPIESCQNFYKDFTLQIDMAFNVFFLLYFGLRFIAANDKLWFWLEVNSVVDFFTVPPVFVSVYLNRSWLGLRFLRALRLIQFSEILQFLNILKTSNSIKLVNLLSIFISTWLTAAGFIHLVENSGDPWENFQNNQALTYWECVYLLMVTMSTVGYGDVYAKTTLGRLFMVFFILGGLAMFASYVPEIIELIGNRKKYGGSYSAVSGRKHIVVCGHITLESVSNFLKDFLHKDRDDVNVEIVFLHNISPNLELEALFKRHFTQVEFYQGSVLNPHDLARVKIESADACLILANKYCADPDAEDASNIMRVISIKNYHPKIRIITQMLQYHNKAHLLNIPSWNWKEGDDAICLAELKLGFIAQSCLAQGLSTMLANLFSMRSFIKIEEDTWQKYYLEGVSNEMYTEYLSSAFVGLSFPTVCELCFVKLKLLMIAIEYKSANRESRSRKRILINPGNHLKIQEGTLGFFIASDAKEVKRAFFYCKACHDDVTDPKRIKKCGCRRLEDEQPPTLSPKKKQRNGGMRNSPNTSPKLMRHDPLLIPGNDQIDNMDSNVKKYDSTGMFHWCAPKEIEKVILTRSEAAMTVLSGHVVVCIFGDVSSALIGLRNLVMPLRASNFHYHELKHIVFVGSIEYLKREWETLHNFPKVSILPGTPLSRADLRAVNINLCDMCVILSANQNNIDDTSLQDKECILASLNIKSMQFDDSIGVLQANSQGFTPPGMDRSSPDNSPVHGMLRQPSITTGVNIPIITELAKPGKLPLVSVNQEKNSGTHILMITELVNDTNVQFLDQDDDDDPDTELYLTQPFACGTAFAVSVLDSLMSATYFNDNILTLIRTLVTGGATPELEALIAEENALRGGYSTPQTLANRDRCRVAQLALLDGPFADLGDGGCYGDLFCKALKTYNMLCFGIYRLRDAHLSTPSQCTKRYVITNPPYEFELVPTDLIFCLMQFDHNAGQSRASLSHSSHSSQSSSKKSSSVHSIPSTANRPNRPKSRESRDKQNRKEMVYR

[2] = biological target: Calcium-activated potassium channel subunit alpha-1 (Mus musculus) (UniProt Q08460); experiment: Effect on outward K+ current using two-electrode voltage clamp recording from Xenopus laevis oocyte expressing cloned mSlo at 20 uM
[3] = biological target: Calcium-activated potassium channel subunit alpha-1 (Homo sapiens) (UniProt Q12791); experiment: Effect on outward K+ current using two-electrode voltage clamp recording from Xenopus laevis oocyte expressing cloned hSlo at 20 uM
Calcium-activated potassium channel subunit alpha-1 (Homo sapiens), sequence (Q12791 whole entry): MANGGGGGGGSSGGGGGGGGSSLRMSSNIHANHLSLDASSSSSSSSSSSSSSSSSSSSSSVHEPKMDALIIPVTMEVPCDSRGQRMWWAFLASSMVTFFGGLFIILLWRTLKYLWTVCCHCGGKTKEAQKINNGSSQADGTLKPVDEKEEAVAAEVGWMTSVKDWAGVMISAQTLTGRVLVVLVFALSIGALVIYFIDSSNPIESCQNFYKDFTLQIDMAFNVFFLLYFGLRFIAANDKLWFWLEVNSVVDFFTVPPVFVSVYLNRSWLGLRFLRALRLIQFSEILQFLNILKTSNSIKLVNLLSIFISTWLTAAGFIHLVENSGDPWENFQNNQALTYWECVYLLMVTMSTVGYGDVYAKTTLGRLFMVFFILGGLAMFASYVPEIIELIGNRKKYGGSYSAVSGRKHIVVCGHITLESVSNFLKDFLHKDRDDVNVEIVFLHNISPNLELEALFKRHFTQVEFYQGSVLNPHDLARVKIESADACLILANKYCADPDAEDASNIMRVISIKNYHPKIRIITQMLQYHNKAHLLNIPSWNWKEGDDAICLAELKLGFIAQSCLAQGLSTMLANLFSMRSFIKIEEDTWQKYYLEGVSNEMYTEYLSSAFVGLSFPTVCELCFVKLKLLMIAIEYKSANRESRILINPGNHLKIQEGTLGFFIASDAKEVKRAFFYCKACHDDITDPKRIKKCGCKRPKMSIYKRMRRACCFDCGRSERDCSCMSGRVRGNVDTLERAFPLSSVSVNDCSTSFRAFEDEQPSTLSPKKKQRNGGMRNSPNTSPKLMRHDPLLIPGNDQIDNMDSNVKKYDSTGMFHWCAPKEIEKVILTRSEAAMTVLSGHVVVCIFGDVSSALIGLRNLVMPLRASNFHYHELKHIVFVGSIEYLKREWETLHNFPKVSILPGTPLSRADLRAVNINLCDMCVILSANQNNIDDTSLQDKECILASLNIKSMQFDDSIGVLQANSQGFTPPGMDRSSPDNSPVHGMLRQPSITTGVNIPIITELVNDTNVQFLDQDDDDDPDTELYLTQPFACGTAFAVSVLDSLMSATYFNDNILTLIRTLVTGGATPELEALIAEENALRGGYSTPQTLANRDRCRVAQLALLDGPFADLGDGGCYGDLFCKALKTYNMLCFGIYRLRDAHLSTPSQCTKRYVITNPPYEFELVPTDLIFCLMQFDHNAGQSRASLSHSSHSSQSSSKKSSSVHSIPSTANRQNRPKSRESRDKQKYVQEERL

| SMILES | Control [1] [%] | Control [2] [%] | Control [3] [%] |
| --- | --- | --- | --- |
| O=C1Nc2cc(C(F)(F)F)ccc2C1(O)c1cc(Cl)ccc1O (racemic) | 201 | 131 | – |
| O=C1Nc2cc(C(F)(F)F)ccc2C1(O)c1cccc(Cl)c1 (racemic) | – | – | 96.7 |
| O=C1Nc2cc(C(F)(F)F)ccc2C1(O)c1ccccc1O (racemic) | – | 90.4 | – |
| O=C1Nc2ccccc2C1(O)c1cc(Cl)ccc1O (racemic) | – | 95.3 | – |
| COc1ccc(Cl)cc1[C@]1(O)C(=O)Nc2cc(C(F)(F)F)ccc21 (stereo in doubt; (+)-4c) | – | – | 117 |
| O=C1Nc2cc(C(F)(F)F)ccc2[C@@]1(O)c1cc(Cl)ccc1O (stereo in doubt; (+)-4e) | – | 124 | – |
| O=C1Nc2cc(C(F)(F)F)ccc2[C@@]1(O)c1cc(Cl)ccc1O (stereo in doubt; (-)-4e) | – | 141 | – |

More lines, now with the values ahead:

| Control [1] [%] | Control [2] [%] | Control [3] [%] | SMILES |
| --- | --- | --- | --- |
| 148 | 132 | – | O=c1[nH]c2cc(C(F)(F)F)ccc2n1-c1cc(Cl)ccc1O |
| – | – | 120 | COc1ccc(Cl)cc1C1(O)C(=O)Nc2cc(C(F)(F)F)ccc21 (racemic) |
| – | – | 116 | COc1ccc(Cl)cc1[C@]1(O)C(=O)Nc2cc(C(F)(F)F)ccc21 (stereo in doubt; (-)-4c) |
